Assay results: the supplement of paper PMC9663587

Key:
[1] = compound: CC(=O)c1c(C)c2cnc(Nc3ccc(N4CCNCC4)cn3)nc2n(C2CCCC2)c1=O; test: increase in dead-cell fraction, 72 h; higher = more death;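 also: breast cancer cell lines in 384-well plates, stained with Hoechst plus LIVE/DEAD far red dye and imaged, cells above an LDR intensity threshold counted dead, Hoechst-negative corpses included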
THZ1 [2] = compound: T1, CN(C)C/C=C/C(=O)Nc1ccc(C(=O)Nc2cccc(Nc3ncc(Cl)c(-c4c[nH]c5ccccc45)n3)c2)cc1 [THZ1]; test: as above
YKL-5-124 = compound: C=CC(=O)Nc1ccc(C(=O)Nc2[nH]nc3c2CN(C(=O)N[C@H](CN(C)C)c2ccccc2)C3(C)C)cc1 [YKL-5-124]; test: as above
Flavopiridol = compound: CN1CC[C@H](c2c(O)cc(O)c3c(=O)cc(-c4ccccc4Cl)oc23)[C@H](O)C1 [Flavopiridol]; test: as above
[3] = compound: CCN1CCN(Cc2ccc(Nc3ncc(F)c(-c4cc(F)c5nc(C)n(C(C)C)c5c4)n3)nc2)CC1; test: as above
BSJ-03-123 = compound: CC(=O)c1c(C)c2cnc(Nc3ccc(N4CCN(CCOCCOCCOCCNC(=O)COc5cccc6c5C(=O)N(C5CCC(=O)NC5=O)C6=O)CC4)cn3)nc2n(C2CCCC2)c1=O [BSJ-03-123]; test: as above
THZ531 = compound: CN(C)C/C=C/C(=O)Nc1ccc(C(=O)N2CCC[C@@H](Nc3ncc(Cl)c(-c4c[nH]c5ccccc45)n3)C2)cc1 [THZ531]; test: as above
[4] = compound: CCc1cnn2c(NCc3ccc[n+]([O-])c3)cc(N3CCCC[C@H]3CCO)nc12; test: as above
LEE011/Ribociclib = compound: CN(C)C(=O)c1cc2cnc(Nc3ccc(N4CCNCC4)cn3)nc2n1C1CCCC1 [LEE011/Ribociclib]; test: as above
Neratinib/HKI272 [5] = compound: T2, CCOc1cc2ncc(C#N)c(Nc3ccc(OCc4ccccn4)c(Cl)c3)c2cc1NC(=O)/C=C/CN(C)C [Neratinib/HKI272]; test: as above
THZ1 [6] = compound: T1, THZ1; test: GR value, 72 h; higher = faster growth (1 = untreated, <0 = killing);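 also: breast cancer and non-malignant breast epithelial lines, nine half-log doses, viable cells counted by Hoechst and LIVE/DEAD dye imaging versus time-zero plates and DMSO controls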
Neratinib/HKI272 [7] = compound: T2, Neratinib/HKI272; test: as above

## EVSAT
[1]; 0.0003162 µM
  increase in dead-cell fraction: 0.0003
[1]; 0.001 µM
  increase in dead-cell fraction: -0.0039
[1]; 0.003162 µM
  increase in dead-cell fraction: -0.002
[1]; 0.01 µM
  increase in dead-cell fraction: -0.0026
[1]; 0.03162 µM
  increase in dead-cell fraction: 0.0033
[1]; 0.1 µM
  increase in dead-cell fraction: 0.0048
[1]; 0.3162 µM
  increase in dead-cell fraction: 0.0108
[1]; 1 µM
  increase in dead-cell fraction: 0.0176
[1]; 3.162 µM
  increase in dead-cell fraction: 0.0205
THZ1 [2]; 0.0001 µM
  increase in dead-cell fraction: -0.0011
THZ1 [2]; 0.0003162 µM
  increase in dead-cell fraction: 0.0011
THZ1 [2]; 0.001 µM
  increase in dead-cell fraction: 0.0012
THZ1 [2]; 0.003162 µM
  increase in dead-cell fraction: 0.0031
THZ1 [2]; 0.01 µM
  increase in dead-cell fraction: 0.0078
THZ1 [2]; 0.03162 µM
  increase in dead-cell fraction: 0.0292
THZ1 [2]; 0.1 µM
  increase in dead-cell fraction: 0.181
THZ1 [2]; 0.3162 µM
  increase in dead-cell fraction: 0.641
YKL-5-124; 0.001 µM
  increase in dead-cell fraction: 0.0967
YKL-5-124; 0.003162 µM
  increase in dead-cell fraction: 0.0973
YKL-5-124; 0.01 µM
  increase in dead-cell fraction: 0.147
YKL-5-124; 0.03162 µM
  increase in dead-cell fraction: 0.16
YKL-5-124; 0.1 µM
  increase in dead-cell fraction: 0.143
YKL-5-124; 0.3162 µM
  increase in dead-cell fraction: 0.185
YKL-5-124; 1 µM
  increase in dead-cell fraction: 0.183
YKL-5-124; 3.162 µM
  increase in dead-cell fraction: 0.204
YKL-5-124; 10 µM
  increase in dead-cell fraction: 0.697
Flavopiridol; 0.0001 µM
  increase in dead-cell fraction: 0
Flavopiridol; 0.0003162 µM
  increase in dead-cell fraction: -0.0027
Flavopiridol; 0.001 µM
  increase in dead-cell fraction: -0.0029
Flavopiridol; 0.003162 µM
  increase in dead-cell fraction: 0.0039
Flavopiridol; 0.01 µM
  increase in dead-cell fraction: 0.0011
Flavopiridol; 0.03162 µM
  increase in dead-cell fraction: 0.0016
Flavopiridol; 0.1 µM
  increase in dead-cell fraction: 0.0006
Flavopiridol; 0.3162 µM
  increase in dead-cell fraction: 0.0111
Flavopiridol; 1 µM
  increase in dead-cell fraction: 0.85
[3]; 0.001 µM
  increase in dead-cell fraction: -0.0003
[3]; 0.003162 µM
  increase in dead-cell fraction: -0.0008
[3]; 0.01 µM
  increase in dead-cell fraction: -0.0013
[3]; 0.03162 µM
  increase in dead-cell fraction: 0.0044
[3]; 0.1 µM
  increase in dead-cell fraction: 0.0048
[3]; 0.3162 µM
  increase in dead-cell fraction: 0.0122
[3]; 1 µM
  increase in dead-cell fraction: 0.0226
[3]; 3.162 µM
  increase in dead-cell fraction: 0.0299
[3]; 10 µM
  increase in dead-cell fraction: 0.798
BSJ-03-123; 0.001 µM
  increase in dead-cell fraction: -0.0001
BSJ-03-123; 0.003162 µM
  increase in dead-cell fraction: 0.0011
BSJ-03-123; 0.01 µM
  increase in dead-cell fraction: 0.0093
BSJ-03-123; 0.03162 µM
  increase in dead-cell fraction: 0.0004
BSJ-03-123; 0.1 µM
  increase in dead-cell fraction: 0.0074
BSJ-03-123; 0.3162 µM
  increase in dead-cell fraction: -0.0005
BSJ-03-123; 1 µM
  increase in dead-cell fraction: 0.0163
BSJ-03-123; 3.162 µM
  increase in dead-cell fraction: 0.0309
BSJ-03-123; 10 µM
  increase in dead-cell fraction: 0.221
THZ531; 0.0001 µM
  increase in dead-cell fraction: 0.0033
THZ531; 0.0003162 µM
  increase in dead-cell fraction: -0.0022
THZ531; 0.001 µM
  increase in dead-cell fraction: -0.0014
THZ531; 0.003162 µM
  increase in dead-cell fraction: -0.0011
THZ531; 0.01 µM
  increase in dead-cell fraction: 0.0002
THZ531; 0.03162 µM
  increase in dead-cell fraction: -0.0005
THZ531; 0.1 µM
  increase in dead-cell fraction: 0.0333
THZ531; 0.3162 µM
  increase in dead-cell fraction: 0.372
[4]; 0.0001 µM
  increase in dead-cell fraction: -0.0004
[4]; 0.0003162 µM
  increase in dead-cell fraction: 0.0006
[4]; 0.001 µM
  increase in dead-cell fraction: 0.0006
[4]; 0.003162 µM
  increase in dead-cell fraction: -0.003
[4]; 0.01 µM
  increase in dead-cell fraction: -0.0037
[4]; 0.03162 µM
  increase in dead-cell fraction: 0.107
LEE011/Ribociclib; 0.001 µM
  increase in dead-cell fraction: 0.0012
LEE011/Ribociclib; 0.003162 µM
  increase in dead-cell fraction: 0.0024
LEE011/Ribociclib; 0.01 µM
  increase in dead-cell fraction: 0.0001
LEE011/Ribociclib; 0.03162 µM
  increase in dead-cell fraction: 0.0046
LEE011/Ribociclib; 0.1 µM
  increase in dead-cell fraction: 0.0067
LEE011/Ribociclib; 0.3162 µM
  increase in dead-cell fraction: 0.0048
LEE011/Ribociclib; 1 µM
  increase in dead-cell fraction: 0.0025
LEE011/Ribociclib; 3.162 µM
  increase in dead-cell fraction: 0.0016
LEE011/Ribociclib; 10 µM
  increase in dead-cell fraction: 0.0146
Neratinib/HKI272 [5]; 0.0003162 µM
  increase in dead-cell fraction: -0.0012
Neratinib/HKI272 [5]; 0.001 µM
  increase in dead-cell fraction: -0.002
Neratinib/HKI272 [5]; 0.003162 µM
  increase in dead-cell fraction: -0.0011
Neratinib/HKI272 [5]; 0.01 µM
  increase in dead-cell fraction: -0.0031
Neratinib/HKI272 [5]; 0.03162 µM
  increase in dead-cell fraction: -0.0026
Neratinib/HKI272 [5]; 0.1 µM
  increase in dead-cell fraction: -0.0027
Neratinib/HKI272 [5]; 0.3162 µM
  increase in dead-cell fraction: -0.002
Neratinib/HKI272 [5]; 1 µM
  increase in dead-cell fraction: 0.0019
Neratinib/HKI272 [5]; 3.162 µM
  increase in dead-cell fraction: 0.0083
THZ1 [6]; 0.0001 µM
  GR value: 1.02 GR
THZ1 [6]; 0.0003162 µM
  GR value: 0.993 GR
THZ1 [6]; 0.001 µM
  GR value: 0.991 GR
THZ1 [6]; 0.003162 µM
  GR value: 0.946 GR
THZ1 [6]; 0.01 µM
  GR value: 0.975 GR
THZ1 [6]; 0.03162 µM
  GR value: 0.705 GR
THZ1 [6]; 0.1 µM
  GR value: 0.232 GR
THZ1 [6]; 0.3162 µM
  GR value: -0.363 GR
Neratinib/HKI272 [7]; 0.0003162 µM
  GR value: 0.99 GR
Neratinib/HKI272 [7]; 0.001 µM
  GR value: 1.02 GR
Neratinib/HKI272 [7]; 0.003162 µM
  GR value: 1.01 GR
Neratinib/HKI272 [7]; 0.01 µM
  GR value: 0.991 GR
Neratinib/HKI272 [7]; 0.03162 µM
  GR value: 0.978 GR
Neratinib/HKI272 [7]; 0.1 µM
  GR value: 0.909 GR
Neratinib/HKI272 [7]; 0.3162 µM
  GR value: 0.895 GR
Neratinib/HKI272 [7]; 1 µM
  GR value: 0.822 GR
Neratinib/HKI272 [7]; 3.162 µM
  GR value: 0.676 GR
